Reference: US20080090770A1, “Modulation of Muc1 Mediated Signal Transduction” (priority 2003, published 2008)

Legend:
[1] = tested on: PDZ domains; assay: Modified ELISA: profile (matrix) screen of biotinylated peptide against individual GST-PDZ domain fusion proteins; type: binding, human
Excerpt: Profile Results Peptides corresponding to the C-terminus were able to bind a number of PDZ domains in a concentration dependent manner. […] Identities of the interacting PDZ domains are listed directly above or next to the bar representing the absorbance in the assay.
The results, shown in FIGS. 11, 12 and 13, represent the absorbance and standard deviation of interactions of higher relative strength. The data in FIG. 13 for PDZK1, PTPL1 d5, MUPP1 d4 and INADL d1 have high standard deviations and thus require further verification to validate intensity of binding.

[2] = target: T1, biotinylated TAT-MUC1 binding to RIM2 (Homo sapiens, UniProt Q9UQ26); assay: Modified ELISA: competition with binding of biotinylated TAT-MUC1 peptide (SEQ ID NO: 134) to PDZ domain; details: FIG. 10, among three peptides
T1 construct: RIM2, PDZ domain 1: GI#: 12734165; made in house; host or cells: E. coli
T1 sequence (Q9UQ26 668-754 limits assumed): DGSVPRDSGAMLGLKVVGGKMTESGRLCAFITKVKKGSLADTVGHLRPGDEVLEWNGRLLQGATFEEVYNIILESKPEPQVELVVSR

[3] = target: T2, biotinylated TAT-MUC1 binding to ZO1 d2 (Homo sapiens, UniProt Q07157); assay: as above
T2 construct: made in house; host or cells: E. coli
T2 sequence (Q07157 186-264 limits assumed): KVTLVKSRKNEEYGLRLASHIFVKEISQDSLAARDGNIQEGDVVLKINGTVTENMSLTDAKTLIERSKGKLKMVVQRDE

[4] = tested on: PDZ domains; assay: Self-competition experiments in modified ELISA; type: binding, human; details: of the three peptides tested
[5] = target: T3, KIAA0751 (RIM2) PDZ domain 1 (Homo sapiens, UniProt Q9UQ26); assay: Modified ELISA: titration of biotinylated peptide against GST-PDZ domain fusion protein; type: binding
T3 construct: RIM2, PDZ domain 1: GI#: 12734165; made in house; host or cells: E. coli
T3 sequence (Q9UQ26 668-754 limits assumed): T1 sequence (Q9UQ26 668-754 limits assumed)
Experimental: Coat plate with 100 μl of 5 μg/ml anti-GST, O/N at 4° C.;
Dump contents of plate & out tap dry on paper towels;
Block with 200 μl Assay Buffer for 2 hrs at room temperature;
Prepare proteins in Assay Buffer;
Add proteins at 50 μl per well, incubate 1 to 2 hrs at 4° C.;
Prepare peptides in Assay Buffer;
Add peptides at 50 μl per well on ice (write time on plate);
Incubate on ice after last peptide has been added for exactly 10 minutes;
Place at room temp for exactly 20 minutes;
Prepare HRP-Streptavidin within 10 minutes of time of use;
Promptly wash 3× with cold PBS;
Add 100 μl per well of HRP-Streptavidin (write time on plate);
Incubate at 4° C. for exactly 20 minutes;
Turn on plate reader and prepare files;
Promptly wash 5× with PBS at room temperature;
Add 100 μl/well TMB substrate (write time on plate);
Incubate in dark at room temp for a maximum of 30 minutes;
Read plate at 25 minutes (650 nm);
Stop reaction with 100 μl of 0.18M H2SO4, 30 min. after adding TMB;
Take last reading at 450 nm soon after stopping reaction;
Titrations to determine relative EC50 values: Peptide corresponding to MUC1 was then titrated against a constant amount of the PDZ domain-containing recombinant proteins identified in the first part of this example.
Using the modified ELISA described supra in Example 6, the effect of two variant carboxy-terminal MUC1 peptides were examined. Two MUC1 isoforms with an A/T substitutions at the fifth amino acid residue from the carboxy-terminal end have been reported in the literature, e.g., carboxy-terminal AAASANL disclosed in GenBank P15941 [gi:547937] and carboxy-terminal AATSANL disclosed in GenBank A35175 [gi:11385307]. Peptides were prepared consisting of the TAT sequence SEQ ID NO: 102 and the terminal nine amino acid residues of the relevant MUC1 sequence, i.e., […]
Using the modified ELISA described supra in Example 7, the binding to the RIM2 PDZ domain of the biotinylated peptide sequences listed in Table 8 were examined. […] Relative EC50 values were calculated from a curve fit of the data for each interaction.

Sequence | Interactions with higher absorbance readings in PDZ profile ([1]; MUC1 peptide concentration 0.01 μm, FIG. 3) | Interactions with higher absorbance readings in PDZ profile ([1]; MUC1 peptide concentration 0.1 μm, FIG. 4) | Competitive inhibition of biotinylated SEQ ID NO: 134 (TAT-MUC1) binding [2] | Competition for binding of biotinylated SEQ ID NO: 134 (TAT-MUC1) [3] | Behaviour in self-competition experiments [4] | EC50 for binding to RIM2, compared with SEQ ID NO: 136 [5] | Selectivity of binding, RIM2 versus ZO 1 d2 [5] | Tightness of binding to RIM2 among the three peptides ([5]; comparison of SEQ ID NO: 136, 137, 138)
NGGSSLSYTNPAVAATSANL [MUC1 peptide] | seven interactions are observed to give higher absorbance readings | more interactions are observed |  |  |  |  |  | 
YGRKKRRQRRRARGDRKRIV [SEQ ID NO: 136] |  |  | best competitive inhibitor | can also compete for binding |  |  |  | 
YGRKKRRQRRRQDEEEGIWA [SEQ ID NO: 137] |  |  |  | only a relatively weak competitor | acts the most like a traditional competitive inhibitor | lower EC50 | binds RIM2 more strongly than ZO 1 d2 | binds most tightly
